Test results published in US11464749B2, “Bismuth-thiol compositions and methods of use” (Microbion Corporation, priority 2018, dated 2022).
Values after ≈ are worked out from the molar mass of the structure shown. Where two headings read alike, the source gives them in different places.

Key:
C. glabrata = assay: Broth microdilution MIC, yeast (Example 11); format: cell-based; conditions: Nakaseomyces glabratus, FLU^R
A. terreus = assay: Broth microdilution antifungal susceptibility (Example 13); format: cell-based; conditions: Aspergillus terreus, A. terreus MMX 8229
C. albicans = assay: Broth microdilution MIC, yeast (Example 11); format: cell-based
[1] = tested on: beta-hemolytic streptococci; assay: Broth microdilution MIC (Example 11); conditions: read-out: MIC values
A. flavus = assay: Broth microdilution antifungal susceptibility (Example 13); format: cell-based; conditions: Aspergillus flavus
C. parapsilosis = assay: Broth microdilution MIC, yeast (Example 11); format: cell-based
[2] = tested on: B. cepcacia complex (not further speciated); assay: MIC against CF bacterial strains (Example 5); format: cell-based; conditions: beta lactam-S, TMP/SMX-S
Experimental: (§1) A range of CF-isolated strains of Mycobacterium avium and Mycobacterium abscessus were included; which allows for understanding of the activity against non-tubercular Mycobacteria (NTM). Two distinct bismuth-thiol compounds were evaluated, including BisEDT and BisBDT. […] The CF-isolates of greater clinical relevance, including both M abscessus spp. and Burkholderia spp., were both consistently found to be much more susceptible to BisEDT and BisBDT.

[3] = tested on: B. multivorans (cepacia complex); assay: MIC against CF bacterial strains (Example 5); format: cell-based; conditions: Burkholderia multivorans
Experimental: as §1

[4] = tested on: B. dolosa (cepacia complex); assay: MIC against CF bacterial strains (Example 5); format: cell-based; conditions: Burkholderia dolosa; strain BC 11, CF isolate, beta lactam-R, TMP/SMX-S, FQ-R
Experimental: as §1

[5] = tested on: B. cepacia (cepacia complex); assay: MIC against CF bacterial strains (Example 5); format: cell-based; conditions: Burkholderia cepacia
Experimental: as §1

S. aureus ATCC 29213 = assay: Broth microdilution MIC, ATCC QC organism (Example 12); conditions: Staphylococcus aureus, ATCC29213
P. aeruginosa [6] = conditions: P. aeruginosa isolate 103; CLSI QC range shown in parenthesis; cited from earlier work
[7] = Particle size distribution of exposure aerosols (In-Tox Mercer Impactor); conditions: rat efficacy study exposure atmospheres
Burkholderia spp. = conditions: initial MIC testing
P. aeruginosa [8] = assay: Broth microdilution MIC (Example 10); conditions: initial MIC testing

`CC(S)C(C)S.[Bi]` (stereo not shown) [BisBDT, bismuth-2,3-butanedithiol] showed an MIC (C. glabrata; 24 h, C. glabrata MMX 7086) of 0.5 mg/L, an MIC (C. glabrata; 24 h, C. glabrata MMX 7318) of 0.25 mg/L and an MIC (C. glabrata; 48 h, C. glabrata MMX 7086) of 1 mg/L. It also gave an MIC (C. glabrata; 48 h, C. glabrata MMX 7318) of 0.5 mg/L, an MIC (A. terreus; 24 hr, read-out: MIC0 24 hr) of 0.25 mg/L and an MIC (A. terreus; 48 hr, read-out: MIC0 48 hr) of 1 mg/L. The MIC (C. albicans; C. albicans MMX 7055, Sensitive, 48 hr) was 2, 2 μg/mL, the MIC (C. albicans; Candida albicans, 24 h) was 2 mg/L and the MIC (C. albicans; Candida albicans, 48 h) was 2 mg/L. For the same molecule, the MIC [1] was 0.03 to 2 mg/L, the MIC (A. flavus; ATCC22546, A. flavus ATCC 22546, 24 hr, read-out: MIC0 24 hr) was 1 mg/L and the MIC (A. flavus; ATCC22546, A. flavus ATCC 22546, 48 hr, read-out: MIC0 48 hr) was 2 mg/L. For the same molecule, the MIC (A. flavus; ATCC204304, A. flavus ATCC 204304, 24 hr, read-out: MIC0 24 hr) was 4 mg/L, the MIC (A. flavus; ATCC204304, A. flavus ATCC 204304, 48 hr, read-out: MEC at 48 hr (MIC0 not observed)) was 4 mg/L and the MIC (A. flavus; A. flavus MMX 7935, 24 hr, read-out: MIC0 24 hr) was 8 mg/L. It also gave an MIC (A. flavus; A. flavus MMX 7935, 48 hr, read-out: MIC0 48 hr) of 8 mg/L, an MIC (C. parapsilosis; C. parapsilosis MMX 7555, FLU^R, 24 hr) of 0.25 mg/L and an MIC (C. parapsilosis; C. parapsilosis MMX 7555, FLU^R, 48 hr) of 0.5 mg/L. It also gave an MIC (C. parapsilosis; Lodderomyces parapsilosis, 24 h) of 0.25 mg/L, an MIC (C. parapsilosis; Lodderomyces parapsilosis, 48 h) of 0.5 mg/L and an MIC (C. parapsilosis; Lodderomyces parapsilosis, ATCC22019, 24 h) of 0.5 mg/L. It also gave an MIC (C. parapsilosis; Lodderomyces parapsilosis, ATCC22019, 48 h) of 1 mg/L, an MIC ([2]; strain BC 9, CF isolate, FQ-R) of 0.5 mg/L and an MIC ([2]; strain PC 213, CF isolate, FQ-S) of 1 mg/L. For the same molecule, the MIC ([3]; strain BC 5, CF isolate, beta lactam-S, TMP/SMX-S, FQ-I) was 2 mg/L, the MIC ([3]; strain BC5b) was 1 mg/L and the MIC [4] was 0.5 mg/L. It also gave an MIC ([5]; strain BC17) of 8 mg/L, an MIC ([5]; strain BC 17, CF isolate, beta lactam-R, TMP/SMX-R, FQ-R) of 4 mg/L and an MIC (S. aureus ATCC 29213) of 0.12 mg/L.

In the case of `C1C[S][Bi]([S]CC[S][Bi]2[S]CC[S]2)[S]1` [BisEDT, bismuth-1,2-ethanedithiol], the “MIC, CLSI QC range” value (P. aeruginosa [6]) is given as “(0.5-4) μg/mL” and the “MMAD of exposure aerosol” value [7] is given as 1.54 μm.

Work on `C[C@@H](O)[C@H]1C(=O)N2C(C(=O)O)=C(S[C@@H]3CN[C@H](C(=O)N(C)C)C3)[C@H](C)[C@H]12` [MEM] yielded an MIC (Burkholderia spp.; B. multivorans isolate 1580 (CIP-R)) of 2 mg/L (≈ 5.22 µM), an MIC (Burkholderia spp.; B. multivorans isolate 1791) of 4 mg/L (≈ 10.4 µM) and an MIC (Burkholderia spp.; B. multivorans isolate 1795 (MEM-I, CIP-R)) of 8 mg/L (≈ 20.9 µM). The MIC (Burkholderia spp.; B. multivorans isolate 5665 (CIP-I)) was 2 mg/L (≈ 5.22 µM), the MIC (Burkholderia spp.; B. multivorans isolate 8952 (CIP-I)) was 2 mg/L (≈ 5.22 µM) and the MIC (P. aeruginosa [8]; P. aeruginosa isolate 103) was 1 mg/L (≈ 2.61 µM). The MIC (P. aeruginosa [8]; P. aeruginosa isolate 1497 (TOB-R, AMK-R, CIP-I, AZT-R, COL-R)) was 0.06 mg/L (≈ 0.156 µM), the MIC (P. aeruginosa [8]; P. aeruginosa isolate 1530 (TOB-R, AMK-R, CIP-R)) was 0.5 mg/L (≈ 1.3 µM) and the MIC (P. aeruginosa [8]; P. aeruginosa isolate 1553 (TOB-R, AMK-R, CIP-R)) was 0.5 mg/L (≈ 1.3 µM). It also gave an MIC (P. aeruginosa [8]; P. aeruginosa isolate 6322 (MEM-R, TOB-R, AMK-R, CIP-R, AZT-R)) of 16 mg/L (≈ 41.7 µM), an MIC (P. aeruginosa [8]; P. aeruginosa isolate 6977 (MEM-I, TOB-R, CIP-R, AZT-I)) of 4 mg/L (≈ 10.4 µM) and an MIC (P. aeruginosa [8]; P. aeruginosa isolate 7745 (MEM-R, CIP-R, AZT-R)) of 16 mg/L (≈ 41.7 µM). The MIC (P. aeruginosa [8]; P. aeruginosa isolate 7754 (MEM-R, TOB-R, CIP-R, AZT-I)) was 32 mg/L (≈ 83.4 µM), the MIC (P. aeruginosa [8]; P. aeruginosa isolate 7762 (MEM-I, CIP-I)) was 4 mg/L (≈ 10.4 µM) and the MIC (P. aeruginosa [8]; P. aeruginosa isolate 7871 (MEM-R, AZT-I)) was 8 mg/L (≈ 20.9 µM). It also gave an MIC (P. aeruginosa [8]; P. aeruginosa isolate 7874) of 1 mg/L (≈ 2.61 µM), an MIC (P. aeruginosa [8]; P. aeruginosa isolate 7886 (MEM-R, CIP-R, AZT-R)) of 32 mg/L (≈ 83.4 µM) and an MIC (P. aeruginosa [8]; P. aeruginosa isolate 8797 (MEM-R, TOB-R, AMK-R, CIP-R, AZT-R, COL-R)) of 32 mg/L (≈ 83.4 µM). For the same molecule, the MIC (P. aeruginosa [8]; P. aeruginosa isolate 8798 (MEM-R, TOB-R, AMK-R, CIP-R, AZT-R, COL-R)) was 64 mg/L (≈ 167 µM) and the MIC (P. aeruginosa [8]; P. aeruginosa isolate 9108 (CIP-R, AZT-I)) was 0.5 mg/L (≈ 1.3 µM).
